Experimental data: patent publication US12629374B2, “Antimalarial agents” (Merck Sharp & Dohme LLC, priority 2020, dated 2026)
Counter-ions that a name gives are not always drawn.

Tested on: ring stage parasites
Experiment: Parasite growth potency assay, 72 hours, LDH readout
Type: cell-based
Conditions: 72 h, parasite growth measured by LDH assay after 72 hours at 37° C.; 0.7% rings, 2% haematocrit; read-out: EC50
Protocol: The parasite stock was maintained at 4% haematocrit in RPMI-Hepes media buffered with sodium bicarbonate and supplemented with 5% heat inactivated human serum and 0.5% albumax.
On the day of assay set up, a blood smear of the parasite culture was Giemsa stained and counted. The parasitemia was adjusted to 0.7% rings and the haematocrit was diluted to 2% in RPMI-Hepes media buffered with sodium bicarbonate and supplemented with 5% heat inactivated human serum and 0.5% albumax. 30 ul of diluted parasites are then added into 10 ul of media+compound in pre-prepared Greiner TC assay plates. Parasite assay plates were placed in gassed humidified boxes in single layer and allowed to incubate at 37° C. for 72 hours. After 72 hours growth, assay plates are sealed with parafilm and frozen flat, in single file at −80° C. overnight. On the following day, assay plates are allowed to thaw at room temperature for 4 hours to which an LDH assay is performed to measure parasite growth.

**Q.** For `CCC1(CC)CC(=O)N([C@H](c2cccc(C(=O)N[C@H]3CCOc4ccccc43)c2)c2cncs2)C(=N)N1` (single isomer, unassigned) [Example 85B, trifluoroacetate], which EC50 is on record?
**A.** 2.1 nM

**Q.** With `CCC1(CC)CC(=O)N([C@@H](COCCOC)c2cccc(C(=O)N[C@H]3CC(C)(C)Oc4ccccc43)c2)C(=N)N1` (single isomer, unassigned) [Example 112B, trifluoroacetate] as the compound, how does the EC50 read?
**A.** 59.6 nM

**Q.** For `CCC1(CC)CC(=O)N(Cc2cccc(C(=O)N[C@@H]3c4ccccc4OCC3O)c2)C(=N)N1` (single isomer, unassigned) [Example 126A, 3-[(4,4-diethyl-2-imino-6-oxo-hexahydropyrimidin-1-yl)methyl]-N-(3-hydroxychroman-4-yl)benzamide], which EC50 is on record?
**A.** 19.4 nM

**Q.** With `CCC[C@H](c1cccc(C(=O)N[C@@H]2c3ccccc3OCC2O)c1)N1C(=N)NC(CC)(CC)CC1=O` (single isomer, unassigned) [Example 127B] as the compound, how does the EC50 read?
**A.** 1.2 nM

**Q.** Which EC50 does the source give for `CCC1(CC)CC(=O)N([C@H](CCOC)c2cccc(C(=O)NC3c4ccccc4CC3(C)O)c2)C(=N)N1` (single isomer, unassigned) [Example 142B, 3-[1-(4,4-diethyl-2-imino-6-oxo-hexahydropyrimidin-1-yl)-3-methoxy-propyl]-N-(2-hydroxy-2-methyl-indan-1-yl)benzamide] here?
**A.** 1.4 nM

**Q.** How did the EC50 turn out when `CCC1(CC)CC(=O)N([C@H](CCOC)c2cc(F)cc(C(=O)N[C@H]3c4ccccc4CC3(C)O)c2)C(=N)N1` (single isomer, unassigned) [Example 144A, 3-[1-(4,4-diethyl-2-imino-6-oxo-hexahydropyrimidin-1-yl)-3-methoxy-propyl]-5-fluoro-N-(2-hydroxy-2-methyl-indan-1-yl)benzamide] was run?
**A.** 81.6 nM

Same assay, conditions: parasite growth measured by LDH assay after 72 hours at 37° C.; 0.7% rings, 2% haematocrit; read-out: EC50

**Q.** Which EC50 does the source give for `CCC1(CC)CC(=O)N(C(c2cncnc2)c2cccc(C(=O)NC3CC(C)(C)Oc4ccccc43)c2)C(=N)N1` (single isomer, unassigned) [Example 92A, 3-[(4,4-diethyl-2-imino-6-oxo-hexahydropyrimidin-1-yl)-pyrimidin-5-yl-methyl]-N-(2,2-dimethylchroman-4-yl)benzamide] here?
**A.** 25.5 nM

**Q.** Which EC50 does the source give for `CCC1(CC)CC(=O)N(C(c2cncnc2)c2cccc(C(=O)NC3CC(C)(C)Oc4ccccc43)c2)C(=N)N1` (single isomer, unassigned) [Example 92C, 3-[(4,4-diethyl-2-imino-6-oxo-hexahydropyrimidin-1-yl)-pyrimidin-5-yl-methyl]-N-(2,2-dimethylchroman-4-yl)benzamide] here?
**A.** 2.8 nM

**Q.** `CCC12CCCCCCC3COc4ccccc4C3NC(=O)c3cccc(c3)CN(C(=N)N1)C(=O)C2` (single isomer, unassigned) [Example 120A, (26-ethyl-8,29-dioxo-17-oxa-1,9,27-triazapentacyclo[24.2.2.13,7.010,19. 011,16]hentriaconta-3,5,7(31),11(16),12,14-hexaen-28-ylidene)ammonium; 2,2,2-trifluoroacetate] was tested. Which EC50 did it give?
**A.** 70.3 nM

**Q.** `CCC12CCCCCCC3COc4ccccc4C3NC(=O)c3cccc(c3)CN(C(=N)N1)C(=O)C2` (single isomer, unassigned) [Example 120B, (26-ethyl-8,29-dioxo-17-oxa-1,9,27-triazapentacyclo[24.2.2.13,7.010,19. 011,16]hentriaconta-3,5,7(31),11(16),12,14-hexaen-28-ylidene)ammonium; 2,2,2-trifluoroacetate] was tested. Which EC50 did it give?
**A.** 35.5 nM

**Q.** `CCC12CCCCCCC3COc4ccccc4C3NC(=O)c3cccc(c3)CN(C(=N)N1)C(=O)C2` (single isomer, unassigned) [Example 120C, (26-ethyl-8,29-dioxo-17-oxa-1,9,27-triazapentacyclo[24.2.2.13,7.010,19. 011,16]hentriaconta-3,5,7(31),11(16),12,14-hexaen-28-ylidene)ammonium; 2,2,2-trifluoroacetate] was tested. Which EC50 did it give?
**A.** 21.9 nM

**Q.** `CCC12CCCCCCC3COc4ccccc4C3NC(=O)c3cccc(c3)CN(C(=N)N1)C(=O)C2` (single isomer, unassigned) [Example 120D, (26-ethyl-8,29-dioxo-17-oxa-1,9,27-triazapentacyclo[24.2.2.13,7.010,19. 011,16]hentriaconta-3,5,7(31),11(16),12,14-hexaen-28-ylidene)ammonium; 2,2,2-trifluoroacetate] was tested. Which EC50 did it give?
**A.** 27.6 nM

**Q.** Which EC50 does the source give for `CCC[C@H](c1cccc(C(=O)N[C@H]2c3ccccc3CC2(C)O)c1)N1C(=N)NC(CC)(CC)CC1=O` (single isomer, unassigned) [Example 122B] here?
**A.** 17.7 nM

**Q.** How did the EC50 turn out when `CCC[C@H](c1cccc(C(=O)N[C@H]2c3ccccc3CC2(C)O)c1)N1C(=N)NC(CC)(CC)CC1=O` (single isomer, unassigned) [Example 122C] was run?
**A.** 57.3 nM

**Q.** `CCC1(CC)CC(=O)N([C@H](CCOC)c2cc(F)cc(C(=O)N[C@H]3c4ccccc4CC3(C)O)c2)C(=N)N1` (single isomer, unassigned) [Example 144C, 3-[1-(4,4-diethyl-2-imino-6-oxo-hexahydropyrimidin-1-yl)-3-methoxy-propyl]-5-fluoro-N-(2-hydroxy-2-methyl-indan-1-yl)benzamide] was tested. Which EC50 did it give?
**A.** 99.5 nM

**Q.** `CCC1(CC)CC(=O)N([C@H](CCOC)c2cccc(C(=O)N[C@@H]3c4ccccc4CC3(O)C(F)(F)F)c2)C(=N)N1` (single isomer, unassigned) [Example 204A] was tested. Which EC50 did it give?
**A.** 21 nM

**Q.** Which EC50 does the source give for `CCC1(CC)CC(=O)N([C@H](CCOC)c2cccc(C(=O)N[C@@H]3c4ccccc4CC3(O)C(F)(F)F)c2)C(=N)N1` (single isomer, unassigned) [Example 204B] here?
**A.** 8.5 nM

**Q.** `CC[C@]1(C)CC(=O)N([C@H](CCOC)c2cccc(C(=O)NC3c4ccccc4OC(C)(C)C3(C)O)c2)C(=N)N1` (single isomer, unassigned) [Example 234A] was tested. Which EC50 did it give?
**A.** 0.43 nM

**Q.** How did the EC50 turn out when `CC[C@]1(C)CC(=O)N([C@H](CCOC)c2cccc(C(=O)NC3c4ccccc4OC(C)(C)C3(C)O)c2)C(=N)N1` (single isomer, unassigned) [Example 234B] was run?
**A.** 74.8 nM

**Q.** `CCC1(CC)CC(=O)N(C(CC(O)C(F)(F)F)c2cccc(C(=O)N[C@@H]3c4ccccc4C[C@H]3O)c2)C(=N)N1` (single isomer, unassigned) [Example 236A] was tested. Which EC50 did it give?
**A.** 55 nM

**Q.** For `CCC1(CC)CC(=O)N(C(CC(O)C(F)(F)F)c2cccc(C(=O)N[C@@H]3c4ccccc4C[C@H]3O)c2)C(=N)N1` (single isomer, unassigned) [Example 236B], which EC50 is on record?
**A.** 0.96 nM

**Q.** `CCC1(CC)CC(=O)N(C(CC(O)C(F)(F)F)c2cccc(C(=O)N[C@@H]3c4ccccc4C[C@H]3O)c2)C(=N)N1` (single isomer, unassigned) [Example 236C] was tested. Which EC50 did it give?
**A.** 2.3 nM

**Q.** For `CC[C@]1(C)CC(=O)N([C@H](CCOC)c2cccc(C(=O)NC3c4cc(F)ccc4OC(C)(C)C3(C)O)c2)C(=N)N1` (single isomer, unassigned) [Example 237A], which EC50 is on record?
**A.** 54.6 nM

**Q.** How did the EC50 turn out when `CC[C@]1(C)CC(=O)N([C@H](CCOC)c2cccc(C(=O)NC3c4cc(F)ccc4OC(C)(C)C3(C)O)c2)C(=N)N1` (single isomer, unassigned) [Example 237B] was run?
**A.** 0.19 nM

**Q.** `CCC1(CC)CC(=O)N(C(CC(OC)C(F)(F)F)c2cccc(C(=O)N[C@@H]3c4ccccc4C[C@H]3O)c2)C(=N)N1` (single isomer, unassigned) [Example 238A] was tested. Which EC50 did it give?
**A.** 1.94 nM

**Q.** Which EC50 does the source give for `CCC1(CC)CC(=O)N(C(CC(OC)C(F)(F)F)c2cccc(C(=O)N[C@@H]3c4ccccc4C[C@H]3O)c2)C(=N)N1` (single isomer, unassigned) [Example 238B] here?
**A.** 67.5 nM

**Q.** Which EC50 does the source give for `CCC1(CC)CC(=O)N(C(CC(OC)C(F)(F)F)c2cccc(C(=O)N[C@@H]3c4ccccc4C[C@H]3O)c2)C(=N)N1` (single isomer, unassigned) [Example 238C] here?
**A.** 2.32 nM

**Q.** With `CCC1(CC)CC(=O)N(C(CC(OC)C(F)(F)F)c2cccc(C(=O)N[C@@H]3c4ccccc4C[C@H]3O)c2)C(=N)N1` (single isomer, unassigned) [Example 238D] as the compound, how does the EC50 read?
**A.** 2.25 nM

Same assay, conditions: parasite growth measured by LDH assay after 72 hours at 37° C.; 0.7% rings, 2% haematocrit; trifluoroacetate; read-out: EC50

**Q.** Which EC50 does the source give for `CCC1(CC)CC(=O)N(Cc2cccc(C(=O)NC3CC(C)(C)Oc4ccccc43)c2)C(=N)N1` (single isomer, unassigned) [Example 51A, [1-[[3-[(2,2-dimethylchroman-4-yl)carbamoyl]phenyl]methyl]-4,4-diethyl-6-oxo-hexahydropyrimidin-2-ylidene]ammonium; 2,2,2-trifluoroacetate] here?
**A.** 91.9 nM

**Q.** `CCC1(CC)CC(=O)N(Cc2cccc(C(=O)NC3CC(C)(C)Oc4ccccc43)c2)C(=N)N1` (single isomer, unassigned) [Example 51B, [1-[[3-[(2,2-dimethylchroman-4-yl)carbamoyl]phenyl]methyl]-4,4-diethyl-6-oxo-hexahydropyrimidin-2-ylidene]ammonium; 2,2,2-trifluoroacetate] was tested. Which EC50 did it give?
**A.** 0.5 nM

**Q.** For `CCC1(CC)CC(=O)N([C@H](CCOC)c2cc(F)cc(C(=O)NC3c4ccccc4OC3(C)COC)c2)C(=N)N1` (single isomer, unassigned) [Example 176A, trifluoroacetate], which EC50 is on record?
**A.** 21.8 nM

**Q.** Which EC50 does the source give for `CCC1(CC)CC(=O)N([C@H](CCOC)c2cc(F)cc(C(=O)NC3c4ccccc4OC3(C)COC)c2)C(=N)N1` (single isomer, unassigned) [Example 176C, trifluoroacetate] here?
**A.** 98.9 nM

**Q.** For `CCC1(CC)CC(=O)N([C@H](CCOC)c2cccc(C(=O)N[C@@H]3c4ccccc4OC3(C)CO)c2)C(=N)N1` (single isomer, unassigned) [Example 180A, trifluoroacetate], which EC50 is on record?
**A.** 1.5 nM

**Q.** How did the EC50 turn out when `CCC1(CC)CC(=O)N([C@H](CCOC)c2cccc(C(=O)N[C@@H]3c4ccccc4OC3(C)CO)c2)C(=N)N1` (single isomer, unassigned) [Example 180B, trifluoroacetate] was run?
**A.** 15.3 nM
